Reference: PMC9682480, ““Vermellogens” and the Development of CB[8]-Based Supramolecular Switches Using pH-Responsive and Non-Toxic Viologen Analogues” (Journal of the American Chemical Society, 2022)

What was measured:
HFF-1 cells = assay: Cell viability assay (WST-1) in human fibroblastic cell line; type: cell-based
Protocol: To conclude with this part of our work on the molecular responsiveness of the “vermellogens,” we decided to substantiate whether the bis-pyridinium core in the compounds would have or not a viologen-like reversible redox behavior. Thus, cyclic voltamograms were recorded for RaH·2Cl (2 mM) in buffered aqueous solutions at pH = 2 (0.05 M H3PO4/NaH2PO4), 7 (0.05 M NaH2PO4/Na2HPO4), and 12 (0.05 M Na2HPO4/Na3PO4). Those shown both the acidic (RaH^2+) and basic (Ra^+) forms of the “red thread” owning non-reversible redox peaks (Figure 1b).
Fibroblast cells (HFF-1; ATTC® SCRC-1041TM) were maintained in Dulbecco’s modified eagle’s medium (DMEM) supplemented with 10% FBS and 1% P/S and kept at 37 °C in a humidified atmosphere containing 5% CO2 until their use. HFF-1 cells were seeded in 96 well-plates at an initial density of 10^4 cells/well and allowed to attach for 24 h at 37 °C. The following day, culture medium was removed, replenished by fresh medium (90 µl) and cells were exposed to different concentration of R aH·2Cl and MV (10 µl; final concentrations 0.01, 0.05, 0.1, 0.5 and 1 mM). Control conditions included cells cultured in culture medium, but in absence of compound. Cells were further incubated for 24 h at 37°C and cell viability was monitored using the tetrazolium salt (WST-1) method.6 Absorbance at 450 nm was measured using a Synergy HTX Plate Reader (Biotek, Winooski, VT, USA) and the percent of cell viability (%) was calculated as follows:
Viability (%) = […]
Where Asample and Anegative control depict those absorbance values measured at 450 nm in presence and in absence of compound, respectively. All conditions were tested by triplicate in two independent experiments. Data were expressed as mean ± standard deviation (SD). Statistical analysis was performed by two-ways and one-way ANOVA with Tukey’s LSD post hoc test using IBM SPSS Statistics version 23. A p ≤ 0.05 was considered statistically significant.
Figure S 138: Compounds tested in WST-1 assay for cell viability.
6 Carballo-Pedrares, N.; Kattar, A.; Concheiro, A.; Alvarez-Lorenzo, C.; Rey-Rico, Niosomes-based gene delivery systems for effective transfection of human mesenchymal stem cells. A. Matter. Sci. Eng. 2021, 18, 112307.

[1] = Halide recognition by UV–vis titration in acetonitrile (TBABr); type: binding
Source text: (§1) Finally, diffraction-grade single crystals for RaH·2Cl could be obtained, with the solid-state structure showing hydrogen bonding between the hydrazone moiety with a chloride counterion and a crystallization water (Figure 1a).[34] Moved by this observation, and other reported evidence regarding the anion binding abilities of this type of hydrazone moieties,[30],[35] we decided to study the ability of the “red thread” RaH^2+ to recognize halide anions in acetonitrile by UV–vis titrations and ^1H-NMR. […] Conversely, the addition of increasing amounts of TBACl/Br to 33–20 μM solutions of RaH·2PF6, led to the absorption bands associated with the free form of RaH^2+ at λmax = 370 nm, decreasing in favor of new bands with a slight shift to λmax = 378 and 370 nm, tentatively assigned to RaH^2+···Cl/Br complexes and with the data fitting appropriately to 1:1 association processes (Ka = (7.03 ± 0.14)·10^4 M^–1 for Cl^–, (1.41 ± 0.07)·10^4 M^–1 for Br^–). […]
(§2) NMR titrations could not be performed due to the precipitation of R aH2+ upon 2 eqv. of the corresponding salt. Spectra were recorded at 0, 0.5, 1, 2 and 4 eq. of the corresponding salt to follow the chemical shift of the […]
(§3) Concentration (μM) Absorbance Residual […]

[2] = Halide recognition in acetonitrile (iodide); type: binding; settings: UV–vis titrations and 1H-NMR
Source text: (§4) Finally, diffraction-grade single crystals for RaH·2Cl could be obtained, with the solid-state structure showing hydrogen bonding between the hydrazone moiety with a chloride counterion and a crystallization water (Figure 1a).[34] Moved by this observation, and other reported evidence regarding the anion binding abilities of this type of hydrazone moieties,[30],[35] we decided to study the ability of the “red thread” RaH^2+ to recognize halide anions in acetonitrile by UV–vis titrations and ^1H-NMR. […] Conversely, the addition of increasing amounts of TBACl/Br to 33–20 μM solutions of RaH·2PF6, led to the absorption bands associated with the free form of RaH^2+ at λmax = 370 nm, decreasing in favor of new bands with a slight shift to λmax = 378 and 370 nm, tentatively assigned to RaH^2+···Cl/Br complexes and with the data fitting appropriately to 1:1 association processes (Ka = (7.03 ± 0.14)·10^4 M^–1 for Cl^–, (1.41 ± 0.07)·10^4 M^–1 for Br^–). In both cases, the results agreed with those expected for the recognition through hydrogen bonding between the hydrazone group and the anions, resulting in a bathochromic shift of the absorption band.[30],[35] […]
as §2

[3] = Halide recognition by UV–vis titration in acetonitrile (TBACl); type: binding
Source text: as §1, §2, §3

[4] = Fluoride interaction by UV–vis titration in acetonitrile (TBAF); type: binding; settings: 1 μM, 2:1 process
Source text: as §4, §2

[5] = pKa determination by UV–vis acid–base titrations in water; type: physicochemical; settings: for pKa value (linear fitting of pH against log absorbance ratio): 20 μM chloride salt in NaH2PO4/Na2HPO4, KHCO3/K2CO3 and Na2HPO4/Na2PO4 buffers, supplement; for pKa: aqueous phosphate and carbonate buffers, RH^2+/R^+ or MH^+/M, UV–vis titrations in water, chloride salts
Source text: Next, in our study of the stimuli-responsiveness of the “vermellogens”, we proceeded to verify the new analogues as pH-based molecular switches, by conducting UV–vis acid–base titrations in water for the compounds Ra–eH·2Cl. All the new “vermellogens” show similar π–π* main absorption bands centered at λ^1max = 366–377 nm at neutral or slightly acidic pH. An increase in the basicity of the solution produces the decrease of the aforementioned bands and the concomitant rise of new absorptions associated with the deprotonated compounds and centered at λ^2max = 460–475 nm. The pKa values obtained by the aforementioned UV–vis titrations for Ra–eH·2Cl are quite similar, showing no dependence on the substituent on the pyridinium N^+ atoms within their structures (Table 1 and Figures S115–S125). Furthermore, to evaluate the effect of the two different pyridinium heterocycles on the observed anomalous pKa’s, two analogues were prepared (Ma–bH·Cl), in which one of these moieties was substituted by a neutral phenyl ring.
4.2. pK a determination for Rb by UV-Vis
Figure S 116: UV-Vis spectra for the titration of R b·2Cl at 20 μM in NaH 2PO4/Na2HPO4, KHCO3/K2CO3 and Na2HPO4/Na2PO4 buffers. On the top right: Absorption of R b+ at λ = 474 nm plotted against pH. pH V (mL) of V (mL) of V (mL) of V (mL) of V (mL) of ABS log[A474-(measured) solution A solution B solution C solution D solution E (474 ARb2+)/(ARb1+- […]
Table S 4: Experimental data obtained for the UV-Vis titration of R b·2Cl at 20 μM in NaH2PO4/Na2HPO4, KHCO3/K2CO3 and Na2HPO4/Na2PO4 buffer. Solution A: 20 μM of R b·2Cl and 0.05 M of NaH2PO4. Solution B: 20 μM of R b·2Cl and 0.05 M of NaHPO4. Solution C: 20 μM of R b·2Cl and 0.05 M of Na2PO4. Solution D: 20 μM of R b·2Cl and 0.05 M of KHCO3. Solution E: 20 μM of R b·2Cl and 0.05 M of […]
4.4. pK a determination for Rc by UV-Vis
Figure S 119: UV-Vis spectra for the titration of R c·2Cl at 20 μM in NaH 2PO4/Na2HPO4, KHCO3/K2CO3 and Na2HPO4/Na2PO4 buffers. On the top right: Absorption of R c+ at λ = 466 nm plotted against pH. pH V (mL) of V (mL) of V (mL) of V (mL) of V (mL) of ABS log[A466-(measured) solution A solution B solution C solution D solution E (466 ARc2+)/(ARc+- […]
Table S 5: Experimental data obtained for the UV-Vis titration of R c·2Cl at 20 μM in NaH2PO4/Na2HPO4, KHCO3/K2CO3 and Na2HPO4/Na2PO4 buffer. Solution A: 20 μM of Rc·2Cl and 0.05 M of NaH2PO4. Solution B: 20 μM of R c·2Cl and 0.05 M of NaHPO4. Solution C: 20 μM of R c·2Cl and 0.05 M of Na2PO4. Solution D: 20 μM of R c·2Cl and 0.05 M of KHCO3. Solution E: 20 μM of R c·2Cl and 0.05 M of […]
4.6. pK a determination for Rd by UV-Vis
Figure S 122: UV-Vis spectra for the titration of R d·2Cl at 20 μM in NaH 2PO4/Na2HPO4, KHCO3/K2CO3 and Na2HPO4/Na2PO4 buffers. On the top right: Absorption of R d+ at λ = 475 nm plotted against pH. pH V (mL) of V (mL) of V (mL) of V (mL) of V (mL) of ABS log[A475-(measured) solution A solution B solution C solution D solution E (475 ARd2+)/(ARd1+- […]
Table S 6: Experimental data obtained for the UV-Vis titration of R d·2Cl at 20 μM in NaH2PO4/Na2HPO4, KHCO3/K2CO3 and Na2HPO4/Na2PO4 buffer. Solution A: 20 μM of R d·2Cl and 0.05 M of NaH2PO4. Solution B: 20 μM of R d·2Cl and 0.05 M of NaHPO4. Solution C: 20 μM of R d·2Cl and 0.05 M of Na2PO4. Solution D: 20 μM of R d·2Cl and 0.05 M of KHCO3. Solution E: 20 μM of R d·2Cl and 0.05 M of […]
4.8. pK a determination for Re by UV-Vis
Figure S 125: UV-Vis spectra for the titration of R e·2Cl at 20 μM in NaH 2PO4/Na2HPO4, KHCO3/K2CO3 and Na2HPO4/Na2PO4 buffers. On the top right: Absorption of R e+ at λ = 460 nm plotted against pH. pH V (mL) of V (mL) of V (mL) of V (mL) of V (mL) of ABS log[A460-(measured) solution A solution B solution C solution D solution E (460 ARe2+)/(ARe1+- […]
Table S 7: Experimental data obtained for the UV-Vis titration of R e·2Cl at 20 μM in NaH2PO4/Na2HPO4, KHCO3/K2CO3 and Na2HPO4/Na2PO4 buffer. Solution A: 20 μM of R e·2Cl and 0.05 M of […]

C[n+]1ccc(-c2cc[n+](C)cc2)cc1 [MV^2+, paraquat, reference compound]
decrease of cell survival percentages relative to RaH^2+ (HFF-1 cells; HFF-1, from 0.5 mM): ~3 fold
cell survival (HFF-1 cells; HFF-1, from 0.5 mM concentration, 24 h, WST-1): severe decrease in cell survival

C[n+]1ccc(/C=N/Nc2cc[n+](C)cc2)cc1 [RaH·2PF6]
Ka (1:1 association with Br^–) [1]: (1.41 ± 0.07)·10^4 M^–1
interaction with I^– [2]: no interaction
Ka (1:1 association with Cl^–) [3]: (7.03 ± 0.14)·10^4 M^–1
Ka1 (first F^– equivalent, interaction with hydrazone group) [4]: (4.49 ± 0.77)·10^7 M^–1
Ka2 (deprotonation of the NH assisted by a second fluoride) [4]: (5.43 ± 0.59)·10^7 M^–1

C(=N\Nc1cc[n+](Cc2ccccc2)cc1)/c1cc[n+](Cc2ccccc2)cc1 [RbH·2X]
pKa value (linear fitting of pH against log absorbance ratio) [5]: 8.6
pKa [5]: 8.6

C[n+]1ccc(N/N=C/c2cc[n+](Cc3ccccc3)cc2)cc1 [RcH·2X]
pKa value (linear fitting of pH against log absorbance ratio) [5]: 8.6
pKa [5]: 8.7

C[n+]1ccc(/C=N/Nc2cc[n+](Cc3ccccc3)cc2)cc1 [RdH·2X]
pKa [5]: 8.6

C/C(=N\Nc1cc[n+](C)cc1)c1cc[n+](C)cc1 [ReH·2X]
pKa [5]: 9.6
